Results: patent publication US9101631B2, “Combination therapy based on SRC and aurora kinase inhibition for the treatment of cancer” (Georgetown University, priority 2008, dated 2015)

Test system: HCT116 colorectal cancer cells
Test: In vitro viability-based synergy assay (CellTiter Blue), dasatinib and C1368 alone and in combination
Experimental: HCT116 cells were plated at 3000 cells/well concentration into 96 well plates. […] Cells were incubated for an additional 72 hours and cellular viability measurements were performed using CellTiter Blue assay (Promega). IC50 values were calculated using XLFit and CI values were calculated using Calcusyn (Biosoft).

Row | IC50 value, agent alone (HCT116 cells, 72 hours treatment, single agent) | IC50 (Homo sapiens, HCT-116, 72 h, read-out: IC50 value, agent alone) | SMILES
1 | undeterminable |  | O=C(Nc1cccc(Nc2nccc(Nc3cccc(C(F)(F)F)c3)n2)c1)C1CC1 [C1368, Cyclopropanecarboxylic acid {3-[4-(3-trifluoromethyl-phenylamino)-pyrimidin-2-ylamino]-phenyl}-amide]
2 |  | 600 nM | Cc1nc(Nc2ncc(C(=O)Nc3c(C)cccc3Cl)s2)cc(N2CCN(CCO)CC2)n1 [dasatinib]
